Assay results reported in paper PMC7734625, “Stabilization Strategies for Linear Minigastrin Analogues: Further Improvements via the Inclusion of Proline into the Peptide Sequence” (Journal of Medicinal Chemistry, 2020).
Read-outs that look alike come from different tables or passages of the source. Non-standard residues stand in square brackets, D forms with d. Residues, ends and D or L forms follow the SMILES beside them. *: point of attachment. DOTA = O=C(O)CN1CCN(CC(=O)O)CCN(CC(=O)*)CCN(CC(=O)O)CC1; 1Nal = N[C@@H](Cc1cccc2ccccc12)C(=O)O; NMeNle = CCCC[C@H](NC)C(=O)O

Assays:
[1] = in vivo stability studies in BALB/c mice; details: i.v.
Procedure: Metabolic studies evaluating the stability of the radioligands were carried out in 7- to 8-week-old female BALB/c mice. With the ^111In-labeled peptide derivatives, the studies were performed for the time point of 10 min p.i. (n = 2). With the ^177Lu-labeled peptide derivatives, additional studies were also carried out for the time point of 30 min and 60 min p.i. (n = 1 for each time point). To allow monitoring of the metabolites by analytical HPLC, the mice were injected with a higher amount of radioactivity (6–9 MBq indium-111, 30–45 MBq lutetium-177) corresponding to ∼1 nmol total peptide intravenously through a lateral tail vein. At different time points, the mice were euthanized by cervical dislocation and urine and a blood sample was collected. Liver and kidneys were excised and homogenized in 20 mM HEPES buffer pH 7.3. The amount of intact radiopeptide and the formation of metabolites was analyzed by analytical HPLC. Prior to injection into the HPLC system, all samples were treated as described for human serum and rat organ homogenate samples.

[2] = stability in rat kidney homogenate; assay type: in vitro ADME; details: 120 min incubation, 37 °C
Procedure: (§1) In vitro stability studies characterizing the complex stability as well as the metabolic stability of the radiolabeled peptide analogues were carried out in PBS, fresh human serum, and rat liver and rat kidney homogenates. Organ homogenates were prepared from freshly dissected organs homogenized (IKA-Werke, Staufen, Germany) for 1 min at room temperature (RT) in a 20 mM 4-(2-hydroxyethyl)-1-piperazineethanesulfonic acid (HEPES) buffer at pH 7.3 (30% w/v). A fraction of 0.1 mL of radiolabeled peptide diluted in PBS/HEPES was added to 0.9 mL of medium reaching a final concentration of ∼500 pmol/mL and incubated at 37 °C for up to 120 min in rat organ homogenates (n = 2) and up to 24 h in human serum or PBS (n = 1). At each time point, 100 μL of sample was taken treated with 150 μL of ACN to precipitate proteins centrifuged (2000g, 2 min), diluted with water (1:1), and a fraction of 100 μL was injected to the analytical HPLC system. For serum and tissue homogenates, only the soluble phase extracted after centrifugation was analyzed, whereas the radioactivity lost in the pellet was not considered.

[3] = system: A431-CCK2R/A431-mock xenografts; test: biodistribution in A431-CCK2R/A431-mock xenografted BALB/c nude mice; assay type: in vivo
Procedure: Biodistribution studies evaluating the tumor uptake of the radiolabeled peptides were performed in 7- to 9-week-old female athymic BALB/c nude mice (Charles River, Sulzfeld, Germany). For the induction of tumor xenografts, 150 μL of DMEM containing 2 × 10^6 A431-CCK2R and A431-mock cells were injected subcutaneously in the right and left flank of each mouse, respectively. And 10–14 days after injection, tumors reached a medium weight of ∼0.25 g. The mice were divided into groups of four and injected intravenously via a lateral tail vein with 0.2 MBq of ^111In-labeled compound (0.02 nmol) and 0.7 and 1.5 MBq of the ^177Lu-labeled compound (0.02 and 0.15 nmol). At 4 and 12 h p.i., the mice were sacrificed and the tumors and other tissues (blood, lung, heart, muscle, spleen, intestine, liver, kidneys, stomach, and pancreas) were removed, weighed, and their radioactivity measured in the γ counter together with the rest of the body. Initial biodistribution studies were performed with the three ^177Lu-labeled CCK2R-targeting ligands at an injected peptide amount of 20 pmol for the time point of 4 h p.i. From these studies, two peptide analogues were selected to further characterize the biodistribution profile also at a later time point of 12 h p.i. and at a higher injected peptide amount of 150 pmol. Additional animal studies were performed for the ^111In-labeled conjugates. Percentage of injected activity per gram tissue (%IA/g), tumor-to-organ activity ratios, as well as whole body activity were calculated for each sample and statistical analysis using independent two-population t-test (significance level p < 0.05) was performed using Origin software. For the comparison of more than two groups, data were analyzed using one-way analysis of variance (ANOVA) Holm–Bonferroni-adjusted post hoc analysis (significance level p < 0.05) using Microsoft Excel 2010 software (Microsoft Excel 2010, Microsoft Corporation, WA).

human CCK2R [4] = biological target: T1, human CCK2R (Homo sapiens, UniProt P32239); test: calcium mobilization assay on A431-CCK2R cells; assay type: cell-based; details: mean ± SEM
T1 construct: expressed in transfected cells; host or cells: A431 human epidermoid carcinoma cells, stably transfected (pCR3.1), provided by Dr. Luigi Aloj
T1 sequence (P32239 1-447): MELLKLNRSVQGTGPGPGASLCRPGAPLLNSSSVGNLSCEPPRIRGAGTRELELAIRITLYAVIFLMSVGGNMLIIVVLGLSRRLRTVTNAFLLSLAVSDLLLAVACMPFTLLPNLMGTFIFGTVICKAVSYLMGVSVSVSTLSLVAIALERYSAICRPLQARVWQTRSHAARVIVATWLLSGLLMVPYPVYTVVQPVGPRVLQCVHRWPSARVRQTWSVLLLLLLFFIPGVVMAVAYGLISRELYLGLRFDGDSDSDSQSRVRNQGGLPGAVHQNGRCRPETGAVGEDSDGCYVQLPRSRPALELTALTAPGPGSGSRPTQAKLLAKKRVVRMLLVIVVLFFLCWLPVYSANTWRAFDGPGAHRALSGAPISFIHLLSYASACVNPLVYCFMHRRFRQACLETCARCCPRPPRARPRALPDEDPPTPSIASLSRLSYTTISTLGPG
Procedure: (§2) For calcium mobilization assays evaluating receptor activation, A431-CCK2R cells stably transfected with human CCK2R and AR42J cells expressing rat CCK2R were seeded in flat clear bottom black 96-well plates (Corning, Bagneaux-sur-Loing, France), previously coated with poly-D-ornithine (100 μg/mL, 1 h, 37 °C), at densities of 60 000 and 120 000 cells/well, respectively. After 24 h in culture in a 5% CO2 atmosphere, the cells were rinsed twice with modified HBSS buffer (20 mM HEPES, 0.5 mM MgCl2, 2.6 mM CaCl2, 7.7 mM Na2CO3, 1.4 mM MgSO4, 5.3 mM KCl, 138 mM NaCl, 0.1% BSA, 5.5 mM glucose, 2.5 mM probenecid, pH 7.4) (Sigma-Aldrich, Saint-Quentin-Fallavier, France) and loaded (40 min at 37 °C) with the calcium-sensitive dye Fluo-4 AM (ThermoFisher Scientific, Montigny-Le-Bretonneux, France) containing pluronic acid (20% in dimethyl sulfoxide (DMSO)). […] Briefly, after 18 s recording in basal conditions, 50 μL of graded concentrations of the investigated peptides was added to the incubation medium with a built-in eight-channel pipettor to assess activity. […] EC50 values were calculated with the Prism 4.0 software using a logistic equation. Results were expressed as mean ± standard error of the mean (SEM) for at least three independent experiments in triplicate.

[5] = assay type: in vitro ADME; details: 120 min, pH 7.3
Procedure: as §1

[6] = log D, octanol/PBS distribution; assay type: physicochemical; details: 111In-labeled peptide
human CCK2R [7] = biological target: T1, human CCK2R; test: competitive binding against [125I][3-iodo-Tyr12,Leu15]gastrin-I on A431-CCK2R cells; details: unlabeled peptide, three independent assays, read-out: apparent IC50
Procedure: Binding assays were carried in 96-well filter plates (MultiScreenHTS-FB, Merck Group, Darmstadt, Germany) pretreated with 10 mM TRIS/139 mM NaCl buffer, pH 7.4 (TRIS-buffer) (2 × 250 μL) before 400 000 A431-CCK2R cells per well were added in 35 mM HEPES buffer, pH 7.4, containing 10 mM MgCl2, 14 μM bacitracin, and 0.5% bovine serum albumin (BSA).[46] Competition assays were performed three times in triplicate using increasing concentrations of competitor (0.003–1000 nM) and a constant amount of radioligand (∼40 000 cpm). After 1 h of incubation at room temperature (RT), the medium was removed and the filters were rapidly rinsed with ice-cold TRIS-buffer (2 × 200 μL), removed and counted in a γ-counter. Half-maximal inhibitory concentration (IC50) values were calculated following nonlinear regression with Origin software (MicroCal Origin 6.1, Northampton, MA). Even though incubation was performed in a hypoosmotic solution disturbing the integrity of the cell membrane, we cannot totally exclude that a limited extent of internalization affecting the binding equilibrium occurred. Therefore, the binding affinity measurements obtained from these studies are presented as “apparent IC50” rather than IC50.

rat CCK2R = biological target: T2, rat CCK2R (Rattus norvegicus, UniProt P30553); test: calcium mobilization assay on AR42J cells; assay type: cell-based; details: mean ± SEM
T2 construct: physiologically expressing the rat CCK2R; host or cells: AR42J rat pancreatic tumor cells
T2 sequence (P30553 1-452): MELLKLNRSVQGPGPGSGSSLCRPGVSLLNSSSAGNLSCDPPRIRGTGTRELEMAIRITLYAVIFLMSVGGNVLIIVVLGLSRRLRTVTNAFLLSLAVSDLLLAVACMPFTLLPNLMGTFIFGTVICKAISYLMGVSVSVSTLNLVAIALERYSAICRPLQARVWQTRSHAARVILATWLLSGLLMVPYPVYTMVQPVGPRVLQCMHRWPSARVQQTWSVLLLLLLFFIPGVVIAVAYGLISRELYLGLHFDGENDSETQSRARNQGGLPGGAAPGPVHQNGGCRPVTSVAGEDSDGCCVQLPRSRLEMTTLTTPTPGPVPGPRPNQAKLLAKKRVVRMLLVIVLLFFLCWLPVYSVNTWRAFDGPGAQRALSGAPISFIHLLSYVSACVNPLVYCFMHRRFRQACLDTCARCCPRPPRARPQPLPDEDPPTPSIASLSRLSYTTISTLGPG
Procedure: as §2

human CCK2R [8] = biological target: T1, human CCK2R; details: A431-CCK2R cells, previous assays; cited from earlier work

Compound	intact radiopeptide in rat kidney homogenate [2]	EC50 (human CCK2R [4])	intact radiopeptide in rat liver homogenate [5]	logD [6]	IC50 (human CCK2R [7])	EC50 (rat CCK2R)	further results
CCCC[C@@H](C(=O)N[C@@H](CC(=O)O)C(=O)N[C@@H](Cc1cccc2ccccc12)C(N)=O)N(C)C(=O)[C@H](Cc1c[nH]c2ccccc12)NC(=O)CNC(=O)[C@H](Cc1ccc(O)cc1)NC(=O)[C@@H]1CCCN1C(=O)[C@@H](CCC(=O)O)NC(=O)CN1CCN(CC(=O)O)CCN(CC(=O)O)CCN(CC(=O)O)CC1 [[^111In]In-1] [metal not drawn] ({DOTA}-[dE]PYGW[NMeNle]D[1Nal]-NH2)	~5%						intact radiopeptide in blood ([1]; 10 min p.i.): 80.0 ± 5.2%; intact radiopeptide in kidneys ([1]; 10 min p.i.): 23.4 ± 4.2%; intact radiopeptide in liver ([1]; 10 min p.i.): 76.0 ± 0.4%; intact radiopeptide in urine ([1]; 10 min p.i.): 21.8 ± 8.1%
CCCC[C@@H](C(=O)N[C@@H](CC(=O)O)C(=O)N[C@@H](Cc1cccc2ccccc12)C(N)=O)N(C)C(=O)[C@H](Cc1c[nH]c2ccccc12)NC(=O)CNC(=O)[C@H](Cc1ccc(O)cc1)NC(=O)[C@@H]1CCCN1C(=O)[C@@H](CCC(=O)O)NC(=O)CN1CCN(CC(=O)O)CCN(CC(=O)O)CCN(CC(=O)O)CC1 [compound 1] ({DOTA}-[dE]PYGW[NMeNle]D[1Nal]-NH2)		12.3 ± 2.4 nM	39-53%	-2.03 ± 0.1	1.4 ± 0.6 nM	1.74 ± 0.81 nM	
DOTA-MG11: DOTA conjugate of the truncated MG analogue [DGlu^1,DesGlu^2–6]MG (MG11) (EAYGWMDF; Synthetic [DGlu1,desGlu2-6]minigastrin: residue 1 is D-Glu, N-terminal DOTA, C-terminal amide (Phe-NH2), Tyr not sulfated)							IC50 (human CCK2R [8]): 0.9 ± 0.3 nM

Further lines, with some results ahead:

intact radiopeptide in rat kidney homogenate [2]	EC50 (human CCK2R [4])	intact radiopeptide in rat liver homogenate [5]	logD [6]	IC50 (human CCK2R [7])	EC50 (rat CCK2R)	Compound	further results
~5%						CCCC[C@@H](C(=O)N[C@@H](CC(=O)O)C(=O)N[C@@H](Cc1cccc2ccccc12)C(N)=O)N(C)C(=O)[C@H](Cc1c[nH]c2ccccc12)NC(=O)CNC(=O)[C@H](Cc1ccc(O)cc1)NC(=O)[C@@H]1CCCN1C(=O)[C@@H](CCC(=O)O)NC(=O)CN1CCN(CC(=O)O)CCN(CC(=O)O)CCN(CC(=O)O)CC1 [[^177Lu]Lu-1] [metal not drawn] ({DOTA}-[dE]PYGW[NMeNle]D[1Nal]-NH2)	tumor uptake in A431-CCK2R xenografts ([3]; 20 pmol, 4 h p.i.): 35 % IA/g; uptake in A431-mock xenografts ([3]; 150 pmol, 4 h p.i.): 0.32 ± 0.14 % IA/g; uptake in blood ([3]; 150 pmol, 4 h p.i.): 0.07 ± 0.04 % IA/g; uptake in heart ([3]; 150 pmol, 4 h p.i.): 0.09 ± 0.03 % IA/g; uptake in spleen ([3]; 150 pmol, 4 h p.i.): 0.18 ± 0.05 % IA/g; tumor retention ([3]; A431-CCK2R xenografts, 12 h p.i. relative to 4 h p.i., 20 pmol): > 60%; reduction of tumor uptake in A431-CCK2R xenografts ([3]; injected peptide amount increased to 150 pmol vs 20 pmol, 4 h p.i.): about 50%; intact radiopeptide in blood ([1]; 60 min p.i., n = 1): 56.6%; intact radiopeptide in kidneys ([1]; 60 min p.i., n = 1): 8.1%; intact radiopeptide in liver ([1]; 60 min p.i., n = 1): 30.8%; intact radiopeptide in urine ([1]; 60 min p.i., n = 1): 23.0%
	14.2 ± 2.07 nM	50-61%	-1.75 ± 0.1	0.6 ± 0.3 nM	1.91 ± 0.49 nM	CCCC[C@@H](C(=O)N[C@@H](CC(=O)O)C(=O)N[C@@H](Cc1cccc2ccccc12)C(N)=O)N(C)C(=O)[C@H](Cc1c[nH]c2ccccc12)NC(=O)CNC(=O)[C@@H]1CCCN1C(=O)[C@H](Cc1ccc(O)cc1)NC(=O)[C@@H](CCC(=O)O)NC(=O)CN1CCN(CC(=O)O)CCN(CC(=O)O)CCN(CC(=O)O)CC1 [compound 2] ({DOTA}-[dE]YPGW[NMeNle]D[1Nal]-NH2)	
	12.4 ± 3.83 nM		-2.05 ± 0.08	1.3 ± 0.8 nM	1.27 ± 0.72 nM	CCCC[C@@H](C(=O)N[C@@H](CC(=O)O)C(=O)N[C@@H](Cc1cccc2ccccc12)C(N)=O)N(C)C(=O)[C@H](Cc1c[nH]c2ccccc12)NC(=O)[C@@H]1CCCN1C(=O)[C@H](Cc1ccc(O)cc1)NC(=O)[C@H](C)NC(=O)[C@@H](CCC(=O)O)NC(=O)CN1CCN(CC(=O)O)CCN(CC(=O)O)CCN(CC(=O)O)CC1 [compound 3] ({DOTA}-[dE]AYPW[NMeNle]D[1Nal]-NH2)	
